According to PubChem BioAssay AID1996:
Converted amounts (≈) assume the structure as drawn.

Details: buffer; pH 7.4; 200.0 µM
In the case of COc1ccc(OC)c(NC(=O)COC(=O)[C@H](Cc2ccccc2)NC(=O)c2ccco2)c1, the solubility kinetic was 5.7 µg/mL (≈ 12.6 µM).
COc1ccc(OCCNC(=O)/C=C/c2ccccc2)cc1 showed a solubility kinetic of 4.9 µg/mL (≈ 16.5 µM).
CCC1CCCCN1S(=O)(=O)c1ccc([N+](=O)[O-])cc1 (centres undefined) gave a solubility kinetic of 34.3 µg/mL (≈ 115 µM).
In the case of CC1CCN(C(=O)CSc2n[nH]c(-c3cccs3)n2)CC1, the solubility kinetic was over 48.4 µg/mL.
Compound O=C(COc1ccc(Cl)cc1)NCc1ccncc1 has a solubility kinetic of over 41.5 µg/mL.
Cc1cc(NC(=O)COC(=O)C2CC(=O)N(c3ccccc3)C2)no1 (centres undefined) gave a solubility kinetic of over 51.5 µg/mL.
Work on CC(=O)OCC(=O)Nc1ccc(SC(F)F)cc1 yielded a solubility kinetic of over 41.3 µg/mL.
Work on O=C(Cn1c(CO)nc2ccccc21)Nc1ccc2c(c1)OCCCO2 yielded a solubility kinetic of over 53 µg/mL.
COc1ccc(CCNC(=O)COC(=O)/C=C/c2ccc(OC)cc2OC)cc1 showed a solubility kinetic of 5.1 µg/mL (≈ 12.8 µM).
In the case of CCC(=O)Nc1cccc(NC(=O)c2ccc(C)cc2Cl)c1, the solubility kinetic was 0.6 µg/mL (≈ 1.89 µM).
O=C(CSc1nccc(-c2cccs2)n1)Nc1ccc(F)c(Cl)c1 gave a solubility kinetic of 1.4 µg/mL (≈ 3.69 µM).
Cc1ccc(/C=C(\C#N)C(=O)NCc2ccco2)o1 showed a solubility kinetic of 9 µg/mL (≈ 35.1 µM).
With COc1ccc(-c2csc3nc[nH]c(=O)c23)cc1OC the solubility kinetic was 39.4 µg/mL (≈ 137 µM).
For O=C(Nc1cc2c3c(c1)CC(=O)N3CCC2)c1ccccc1F, the solubility kinetic was 46.4 µg/mL (≈ 150 µM).
O=C(O)C1CSC2(c3ccc(F)cc3)CCC(=O)N12 (centres undefined) showed a solubility kinetic of over 42.2 µg/mL.
O=S(=O)(NC1CCCCC1)c1cccs1 gave a solubility kinetic of 28.7 µg/mL (≈ 117 µM).
For Cn1ccsc1=NC(=O)c1ccc(Cl)c([N+](=O)[O-])c1, the solubility kinetic was 0.5 µg/mL (≈ 1.68 µM).
O=C(O)c1cc(-c2ccccc2Cl)n(-c2ccccc2)n1 showed a solubility kinetic of over 44.8 µg/mL.
For CCN(C(=O)CSc1cccc[n+]1[O-])C1CCCCC1, the solubility kinetic was over 44.2 µg/mL.
Work on Cc1ccc(Cn2c(=O)n(C)c(=O)c3sccc32)cc1 yielded a solubility kinetic of 1.2 µg/mL (≈ 4.19 µM).
With CC(=O)c1ccc(NC(=S)NCCCn2ccnc2)cc1 the solubility kinetic was over 45.4 µg/mL.
In the case of Cc1ccc(F)c(NC(=O)CCOc2ccccc2C)c1, the solubility kinetic was 25.5 µg/mL (≈ 88.7 µM).
Compound O=C(N/C(=C/c1ccc(F)cc1)C(=O)N1CCCCC1)c1ccco1 has a solubility kinetic of over 51.4 µg/mL.
With Cc1ccc2c(c1)c(C1=c3ccccc3=NC1=O)c(O)n2C the solubility kinetic was 1.1 µg/mL (≈ 3.79 µM).
Compound Cn1c(=O)c2c(=O)cc(N)[nH]c2n(C)c1=O has a solubility kinetic of 12.1 µg/mL (≈ 54.5 µM).
Work on O=C(CNS(=O)(=O)c1ccc(Br)cc1)Nc1ccc2c(c1)OCCO2 yielded a solubility kinetic of 8.7 µg/mL (≈ 20.4 µM).
CCOC(=O)c1cc(S(=O)(=O)N2CCCC2)cn1C showed a solubility kinetic of 22.4 µg/mL (≈ 78.2 µM).
COc1cccc(/C=C/C(=O)OCC(=O)Nc2cccc(S(=O)(=O)NC3=NCCCCC3)c2)c1 showed a solubility kinetic of 13.5 µg/mL (≈ 27.8 µM).
Compound Fc1ccc(OCc2nc(-c3cccs3)no2)cc1 has a solubility kinetic of 0.8 µg/mL (≈ 2.9 µM).
Work on Cc1ccnc(NC(=O)CNC(=O)c2ccc3c(c2)OCO3)c1 yielded a solubility kinetic of 22.3 µg/mL (≈ 71.2 µM).
Cn1cc(/C=C2\SC(=O)N(c3ccc(O)cc3)C2=O)c2ccccc21 gave a solubility kinetic of under 0.4 µg/mL.
With Cc1ccc(NC(=O)CNC2CCCCC2)cc1Cl the solubility kinetic was 21.1 µg/mL (≈ 75.1 µM).
Compound O=C(CNC(=O)c1ccccc1F)c1ccc(Br)cc1 has a solubility kinetic of 3.8 µg/mL (≈ 11.3 µM).
Work on CCN(CC)C(=O)Cn1cc(/C=C(\C#N)C(=O)NC2CC2)c2ccccc21 yielded a solubility kinetic of 43 µg/mL (≈ 118 µM).
In the case of Cc1cc(=O)oc2cc(OCC(=O)NC3CCCCC3)ccc12, the solubility kinetic was 7.5 µg/mL (≈ 23.8 µM).
Cc1ccccc1C1NC(c2ccccc2C)C(C)C(=O)C1C (centres undefined) showed a solubility kinetic of 7.7 µg/mL (≈ 25 µM).
In the case of O=C(OCC(=O)N1CCN(C(=O)c2ccco2)CC1)c1c(Cl)cccc1Cl, the solubility kinetic was over 61.7 µg/mL.
In the case of CCN(C(=O)CSc1nccc(=O)[nH]1)C1CCCCC1, the solubility kinetic was over 44.3 µg/mL.
CC(=O)c1c(C)[nH]c(C(=O)OCc2ccc([N+](=O)[O-])cc2)c1C gave a solubility kinetic of 2.1 µg/mL (≈ 6.64 µM).
For COc1ccc(NC(=O)COc2ccc(C)cc2)c([N+](=O)[O-])c1, the solubility kinetic was under 0.3 µg/mL.
In the case of Cc1cc(NC(=O)CSCC(=O)Nc2cc(C(F)(F)F)ccc2N2CCCCC2)no1, the solubility kinetic was 7.6 µg/mL (≈ 16.6 µM).
CNC(=O)COC(=O)c1c2c(nc3ccccc13)CCC2 gave a solubility kinetic of 39.1 µg/mL (≈ 138 µM).
Work on O=C(Oc1cc(Cl)cc(Cl)c1)c1cnc2n(c1=O)CCS2 yielded a solubility kinetic of 43.9 µg/mL (≈ 128 µM).
Compound O=C(CN1CCN(Cc2ccc3c(c2)OCO3)CC1)Nc1ccc2[nH]c(=O)[nH]c2c1 has a solubility kinetic of over 61.4 µg/mL.
OCCCNc1ncnc2c1[nH]c1ccccc12 gave a solubility kinetic of 35.6 µg/mL (≈ 147 µM).
With Cc1ccc(NC(=O)NC(=O)c2cnccc2C(F)(F)F)c(C)c1 the solubility kinetic was 10.9 µg/mL (≈ 32.3 µM).
O=C(Nc1nccs1)c1ccc(-c2ccc(Cl)cc2)o1 gave a solubility kinetic of 1.9 µg/mL (≈ 6.23 µM).
For Cc1ccc(CNC(=O)CCCN2C(=S)NC(C)(C)CC2C)cc1 (centres undefined), the solubility kinetic was 37 µg/mL (≈ 106 µM).
In the case of Cc1ccc(S(=O)(=O)/N=C(/Nc2c(C)cccc2C)c2ccccc2)cc1, the solubility kinetic was 7.3 µg/mL (≈ 19.3 µM).
CCN(CC)C(=O)c1ccc(-c2nnc(OC)c3ccccc23)cc1 gave a solubility kinetic of over 50.3 µg/mL.
Cc1ccc(N2CCN(c3ncccc3[N+](=O)[O-])CC2)c(C)c1 gave a solubility kinetic of 1.4 µg/mL (≈ 4.48 µM).
Compound O=C(COc1ccccc1N1C(=O)C2C3C=CC(C3)C2C1=O)c1ccccc1 (centres undefined) has a solubility kinetic of over 56 µg/mL.
For COc1ccc(N2CC(NC(=O)N3CCc4ccccc43)CC2=O)cc1OC (centres undefined), the solubility kinetic was over 57.2 µg/mL.
CCOc1ccc2c(c1)C(=O)C(=O)N2CC1COc2ccccc2O1 (centres undefined) showed a solubility kinetic of 1.2 µg/mL (≈ 3.54 µM).
Compound CCn1c(=O)c2c(nc(SCC(=O)N3CCC(C)CC3)n2C)n(C)c1=O has a solubility kinetic of over 56.9 µg/mL.
O=C(Cc1ccccc1)NCC1OCCc2ccccc21 (centres undefined) showed a solubility kinetic of 30.9 µg/mL (≈ 110 µM).
For O=C(O)c1ccc(NC(=O)c2ccco2)c(NC(=O)c2ccco2)c1, the solubility kinetic was over 51 µg/mL.
With CC(CNS(=O)(=O)c1ccc(Br)cc1)CN(C)C (centres undefined) the solubility kinetic was over 50.3 µg/mL.
Work on CCOC(=O)C(O)(c1ccc(N=c2ccccn2C)cc1)C(F)(F)F (centres undefined) yielded a solubility kinetic of 46.3 µg/mL (≈ 131 µM).
